Measured values as given in ChEMBL document CHEMBL3885881, “DrugMatrix”.

Organism: Rattus norvegicus
Test: DrugMatrix - Regimen: Daily Repeat
Format: toxicity, organism-based, Sprague-Dawley
Design: regimen Daily Repeat, gender Male, age 6-8 weeks
Conditions: in vivo, po, route oral GAVAGE, vehicle 100 % SALINE; for ABSOLUTE BASOPHIL / ABSOLUTE EOSINOPHIL / ABSOLUTE LYMPHOCYTE / ABSOLUTE MONOCYTE / ABSOLUTE SEGMENTED NEUTROPHIL / BASOPHIL / EOSINOPHIL / ERYTHROCYTE COUNT / HEMATOCRIT / HEMOGLOBIN / LEUKOCYTE COUNT / LYMPHOCYTE / MEAN CORPUSCULAR HEMOGLOBIN / MEAN CORPUSCULAR HEMOGLOBIN CONCENTRATION / MEAN CORPUSCULAR VOLUME / MONOCYTE / NEUTROPHIL / NUCLEATED RED BLOOD CELLS / PLATELET COUNT: tissue Blood; for ALANINE AMINOTRANSFERASE / ALBUMIN / ALKALINE PHOSPHATASE / ASPARTATE AMINOTRANSFERASE / BLOOD UREA NITROGEN / CARBON DIOXIDE / CHLORIDE / CHOLESTEROL / CREATINE PHOSPHOKINASE / CREATININE / GLUCOSE / LACTATE DEHYDROGENASE / LIPASE / PHOSPHORUS / POTASSIUM / SODIUM / TOTAL BILIRUBIN / TOTAL PROTEIN / URIC ACID: tissue Plasma
[1] = 0 mg/kg, 72 h, dose level Control, time 3 day
[2] = 0 mg/kg, 120 h, dose level Control, time 5 day
[3] = 17 mg/kg, 72 h, dose level Low, time 3 day
[4] = 17 mg/kg, 120 h, dose level Low, time 5 day

O=P1(NCCCl)OCCCN1CCCl (configuration not stated) [IFOSFAMIDE]
ABSOLUTE BASOPHIL [1]: 0 CELLS/uL
ABSOLUTE EOSINOPHIL [1]: 0 CELLS/uL
ABSOLUTE LYMPHOCYTE [1]: 8960.83 CELLS/uL
ABSOLUTE MONOCYTE [1]: 103.5 CELLS/uL
ABSOLUTE SEGMENTED NEUTROPHIL [1]: 635.67 CELLS/uL
BASOPHIL [1]: 0%
EOSINOPHIL [1]: 0%
ERYTHROCYTE COUNT [1]: 5.09 x10E6/uL
HEMATOCRIT [1]: 31.8%
HEMOGLOBIN [1]: 12.42 G/DL
LEUKOCYTE COUNT [1]: 9.7 x10E3/uL
LYMPHOCYTE [1]: 92.33%
MEAN CORPUSCULAR HEMOGLOBIN [1]: 24.4 pg
MEAN CORPUSCULAR HEMOGLOBIN CONCENTRATION [1]: 39.07 G/DL
MEAN CORPUSCULAR VOLUME [1]: 62.47 fL
MONOCYTE [1]: 1%
NEUTROPHIL [1]: 6.67%
NUCLEATED RED BLOOD CELLS [1]: 0 /100WBC
PLATELET COUNT [1]: 466.5 x10E3/uL
ALANINE AMINOTRANSFERASE [1]: 83.33 u/L
ALBUMIN [1]: 4.33 G/DL
ALKALINE PHOSPHATASE [1]: 340.5 u/L
ASPARTATE AMINOTRANSFERASE [1]: 189.83 u/L
BLOOD UREA NITROGEN [1]: 15.83 mg/dL
CARBON DIOXIDE [1]: 38 mmol/L
CHLORIDE [1]: 96.83 MEQ/L
CHOLESTEROL [1]: 72.5 mg/dL
CREATINE PHOSPHOKINASE [1]: 370.67 u/L
CREATININE [1]: 0.28 mg/dL
GLUCOSE [1]: 182.83 mg/dL
LACTATE DEHYDROGENASE [1]: 513.5 u/L
LIPASE [1]: 9.83 u/L
PHOSPHORUS [1]: 11.32 mg/dL
POTASSIUM [1]: 6.32 MEQ/L
SODIUM [1]: 145.12 MEQ/L
TOTAL BILIRUBIN [1]: 0.2 mg/dL
TOTAL PROTEIN [1]: 6.4 G/DL
URIC ACID [1]: 2.03 mg/dL
ABSOLUTE BASOPHIL [2]: 0 CELLS/uL
ABSOLUTE EOSINOPHIL [2]: 43.83 CELLS/uL
ABSOLUTE LYMPHOCYTE [2]: 7316.67 CELLS/uL
ABSOLUTE MONOCYTE [2]: 87.33 CELLS/uL
ABSOLUTE SEGMENTED NEUTROPHIL [2]: 418.83 CELLS/uL
BASOPHIL [2]: 0%
EOSINOPHIL [2]: 0.33%
ERYTHROCYTE COUNT [2]: 4.77 x10E6/uL
HEMATOCRIT [2]: 29.93%
HEMOGLOBIN [2]: 11.48 G/DL
LEUKOCYTE COUNT [2]: 7.87 x10E3/uL
LYMPHOCYTE [2]: 93.5%
MEAN CORPUSCULAR HEMOGLOBIN [2]: 24.17 pg
MEAN CORPUSCULAR HEMOGLOBIN CONCENTRATION [2]: 38.57 G/DL
MEAN CORPUSCULAR VOLUME [2]: 62.68 fL
MONOCYTE [2]: 1%
NEUTROPHIL [2]: 5.17%
NUCLEATED RED BLOOD CELLS [2]: 0 /100WBC
PLATELET COUNT [2]: 377.67 x10E3/uL
ALANINE AMINOTRANSFERASE [2]: 89 u/L
ALBUMIN [2]: 4.42 G/DL
ALKALINE PHOSPHATASE [2]: 275.17 u/L
ASPARTATE AMINOTRANSFERASE [2]: 204.17 u/L
BLOOD UREA NITROGEN [2]: 15.33 mg/dL
CARBON DIOXIDE [2]: 36.83 mmol/L
CHLORIDE [2]: 94.67 MEQ/L
CHOLESTEROL [2]: 92 mg/dL
CREATINE PHOSPHOKINASE [2]: 514.5 u/L
CREATININE [2]: 0.24 mg/dL
GLUCOSE [2]: 184.17 mg/dL
LACTATE DEHYDROGENASE [2]: 648.67 u/L
LIPASE [2]: 10 u/L
PHOSPHORUS [2]: 12.33 mg/dL
POTASSIUM [2]: 6.51 MEQ/L
SODIUM [2]: 144.63 MEQ/L
TOTAL BILIRUBIN [2]: 0.18 mg/dL
TOTAL PROTEIN [2]: 6.7 G/DL
URIC ACID [2]: 2.33 mg/dL
ABSOLUTE BASOPHIL [3]: 0 CELLS/uL
ABSOLUTE EOSINOPHIL [3]: 0 CELLS/uL
ABSOLUTE LYMPHOCYTE [3]: 7711.33 CELLS/uL
ABSOLUTE MONOCYTE [3]: 107 CELLS/uL
ABSOLUTE SEGMENTED NEUTROPHIL [3]: 448.33 CELLS/uL
BASOPHIL [3]: 0%
EOSINOPHIL [3]: 0%
ERYTHROCYTE COUNT [3]: 6.17 x10E6/uL
HEMATOCRIT [3]: 39.13%
HEMOGLOBIN [3]: 15.1 G/DL
LEUKOCYTE COUNT [3]: 8.27 x10E3/uL
LYMPHOCYTE [3]: 93.33%
MEAN CORPUSCULAR HEMOGLOBIN [3]: 24.47 pg
MEAN CORPUSCULAR HEMOGLOBIN CONCENTRATION [3]: 38.6 G/DL
MEAN CORPUSCULAR VOLUME [3]: 63.47 fL
MONOCYTE [3]: 1.33%
NEUTROPHIL [3]: 5.33%
NUCLEATED RED BLOOD CELLS [3]: 0 /100WBC
PLATELET COUNT [3]: 648 x10E3/uL
ALANINE AMINOTRANSFERASE [3]: 47.33 u/L
ALBUMIN [3]: 4.43 G/DL
ALKALINE PHOSPHATASE [3]: 256.67 u/L
ASPARTATE AMINOTRANSFERASE [3]: 80.33 u/L
BLOOD UREA NITROGEN [3]: 15 mg/dL
CARBON DIOXIDE [3]: 38.67 mmol/L
CHLORIDE [3]: 95.67 MEQ/L
CHOLESTEROL [3]: 85 mg/dL
CREATINE PHOSPHOKINASE [3]: 300 u/L
CREATININE [3]: 0.31 mg/dL
GLUCOSE [3]: 148.67 mg/dL
LACTATE DEHYDROGENASE [3]: 171.67 u/L
LIPASE [3]: 11.33 u/L
PHOSPHORUS [3]: 11.57 mg/dL
POTASSIUM [3]: 6.47 MEQ/L
SODIUM [3]: 144.97 MEQ/L
TOTAL BILIRUBIN [3]: 0.2 mg/dL
TOTAL PROTEIN [3]: 6.5 G/DL
URIC ACID [3]: 1.23 mg/dL
ABSOLUTE BASOPHIL [4]: 0 CELLS/uL
ABSOLUTE EOSINOPHIL [4]: 0 CELLS/uL
ABSOLUTE LYMPHOCYTE [4]: 4979.67 CELLS/uL
ABSOLUTE MONOCYTE [4]: 84.33 CELLS/uL
ABSOLUTE SEGMENTED NEUTROPHIL [4]: 269.33 CELLS/uL
BASOPHIL [4]: 0%
EOSINOPHIL [4]: 0%
ERYTHROCYTE COUNT [4]: 5.71 x10E6/uL
HEMATOCRIT [4]: 35.77%
HEMOGLOBIN [4]: 13.23 G/DL
LEUKOCYTE COUNT [4]: 5.33 x10E3/uL
LYMPHOCYTE [4]: 93%
MEAN CORPUSCULAR HEMOGLOBIN [4]: 23.13 pg
MEAN CORPUSCULAR HEMOGLOBIN CONCENTRATION [4]: 37.2 G/DL
MEAN CORPUSCULAR VOLUME [4]: 62.3 fL
MONOCYTE [4]: 1.67%
NEUTROPHIL [4]: 5.33%
NUCLEATED RED BLOOD CELLS [4]: 0 /100WBC
PLATELET COUNT [4]: 184 x10E3/uL
ALANINE AMINOTRANSFERASE [4]: 92.33 u/L
ALBUMIN [4]: 4.3 G/DL
ALKALINE PHOSPHATASE [4]: 295.33 u/L
ASPARTATE AMINOTRANSFERASE [4]: 158.33 u/L
BLOOD UREA NITROGEN [4]: 17 mg/dL
CARBON DIOXIDE [4]: 38 mmol/L
CHLORIDE [4]: 94 MEQ/L
CHOLESTEROL [4]: 79.67 mg/dL
CREATINE PHOSPHOKINASE [4]: 366 u/L
CREATININE [4]: 0.26 mg/dL
GLUCOSE [4]: 149.67 mg/dL
LACTATE DEHYDROGENASE [4]: 519 u/L
LIPASE [4]: 9.67 u/L
PHOSPHORUS [4]: 12.83 mg/dL
POTASSIUM [4]: 7.12 MEQ/L
SODIUM [4]: 144.83 MEQ/L
TOTAL BILIRUBIN [4]: 0.17 mg/dL
TOTAL PROTEIN [4]: 6.57 G/DL
URIC ACID [4]: 1.43 mg/dL
